Test results taken from PubChem BioAssay AID330 (DTP/NCI, 2004).
Inconclusive results and toxic doses are left out.

Test system: P388 leukemia ip, CD2F1 mice, survival T/C
Test: NCI In Vivo Anticancer Drug Screen. Data for tumor model P388 Leukemia (intraperitoneal) in CD2F1 (CDF1) mice
Details: endpoint: median survival time, higher = longer survival
Summary of the method: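 Mice carrying the transplanted tumor received test compound or vehicle. Survival was recorded in each group, and the value is the treated-group measurement divided by that of the vehicle-treated control group.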

[1] = dose: 50.0 mg/kg/injection, schedule: Q01DX009 (ip), vehicle: saline with Tween-80
[2] = dose: 100.0 mg/kg/injection, schedule: Q01DX009 (ip), vehicle: saline with Tween-80
[3] = dose: 200.0 mg/kg/injection, schedule: Q01DX009 (ip), vehicle: saline with Tween-80
[4] = dose: 100.0 mg/kg/injection, schedule: Q04DX002 (ip), vehicle: Klucel (hydroxypropylcellulose) (HPC)
[5] = dose: 200.0 mg/kg/injection, schedule: Q04DX002 (ip), vehicle: Klucel (hydroxypropylcellulose) (HPC)
[6] = dose: 400.0 mg/kg/injection, schedule: Q04DX002 (ip), vehicle: Klucel (hydroxypropylcellulose) (HPC)
[7] = dose: 60.0 mg/kg/injection, schedule: Q01DX005 (ip), vehicle: saline with Tween-80
[8] = dose: 120.0 mg/kg/injection, schedule: Q01DX005 (ip), vehicle: saline with Tween-80
[9] = dose: 240.0 mg/kg/injection, schedule: Q01DX005 (ip), vehicle: saline with Tween-80

C#CC[N+]1(C)CCC=C(C(=O)OC)C1 (stereo not drawn)
T/C (dose: 25.0 mg/kg/injection, schedule: Q01DX009 (ip), vehicle: saline): 97 % of control

O=c1c2c([nH]c3c1ccc1c(=O)c4c([nH]c13)CCCC4)CCCC2
T/C [1]: 98 % of control | T/C [2]: 96 % of control | T/C [3]: 94 % of control

CC(C)C(=O)Nc1ccc(S(=O)(=O)Nc2ccc(N)cc2O)cc1
T/C [1]: 96 % of control | T/C [2]: 101 % of control | T/C [3]: 104 % of control

O=CC1C2C=CCC12 (stereo not drawn)
T/C [2]: 113 % of control | T/C [3]: 118 % of control | T/C (dose: 400.0 mg/kg/injection, schedule: Q01DX009 (ip), vehicle: saline with Tween-80): 113 % of control

CC(C)OC(=O)Cn1c(=O)c2nnnn2c2ccccc21
T/C [4]: 93 % of control | T/C [5]: 98 % of control | T/C [6]: 93 % of control

COc1ccccc1NC(=O)CC(=O)c1ccc([N+](=O)[O-])cc1
T/C (dose: 6.25 mg/kg/injection, schedule: Q04DX003 (ip), vehicle: saline sonified): 100 % of control | T/C (dose: 12.5 mg/kg/injection, schedule: Q04DX003 (ip), vehicle: saline sonified): 100 % of control | T/C (dose: 25.0 mg/kg/injection, schedule: Q04DX003 (ip), vehicle: saline sonified): 100 % of control

COc1ccc(/C=C/C(=O)c2ccccc(=O)c2O)cc1OC
T/C (dose: 25.0 mg/kg/injection, schedule: Q01DX005 (ip), vehicle: Klucel (hydroxypropylcellulose) (HPC)): 99 % of control | T/C (dose: 50.0 mg/kg/injection, schedule: Q01DX005 (ip), vehicle: Klucel (hydroxypropylcellulose) (HPC)): 100 % of control | T/C (dose: 100.0 mg/kg/injection, schedule: Q01DX005 (ip), vehicle: Klucel (hydroxypropylcellulose) (HPC)): 114 % of control | T/C (dose: 200.0 mg/kg/injection, schedule: Q01DX005 (ip), vehicle: Klucel (hydroxypropylcellulose) (HPC)): 113 % of control

Cc1ccc(N=Nc2c(-c3ccccc3)nn(C(=S)S)c2C)cc1
T/C (dose: 25.0 mg/kg/injection, schedule: Q04DX002 (ip), vehicle: Klucel (hydroxypropylcellulose) (HPC)): 97 % of control | T/C (dose: 50.0 mg/kg/injection, schedule: Q04DX002 (ip), vehicle: Klucel (hydroxypropylcellulose) (HPC)): 107 % of control | T/C [4]: 105 % of control | T/C [5]: 96 % of control | T/C [6]: 107 % of control

C[C](C)(C)[Sn]([Cl])([c]1ccccc1)[C](C)(C)C
T/C (dose: 100.0 mg/kg/injection, schedule: Q04DX003 (ip), vehicle: saline with Tween-80): 94 % of control | T/C (dose: 200.0 mg/kg/injection, schedule: Q04DX003 (ip), vehicle: saline with Tween-80): 104 % of control | T/C (dose: 400.0 mg/kg/injection, schedule: Q04DX003 (ip), vehicle: saline with Tween-80): 95 % of control

O=NN(Cc1ccc(Cl)cc1)C(C(=O)O)c1ccccc1 (stereo not drawn)
T/C (dose: 60.0 mg/kg/injection, schedule: Q01DX005 (ip), vehicle: Klucel + Tween-80): 103 % of control | T/C (dose: 120.0 mg/kg/injection, schedule: Q01DX005 (ip), vehicle: Klucel + Tween-80): 103 % of control

COC(=O)C(O)(/C(=N\O)c1ccccc1)c1ccccc1 (stereo not drawn)
T/C [7]: 97 % of control | T/C [8]: 90 % of control

CC(C)(C)C(=O)CC(=O)C(F)(F)C(F)(F)C(F)(F)F.CC(C)(C)C(=O)CC(=O)C(F)(F)C(F)(F)C(F)(F)F.CC(C)(C)C(=O)CC(=O)C(F)(F)C(F)(F)C(F)(F)F.[Ho]
T/C [8]: 111 % of control | T/C [9]: 110 % of control

CC(=O)N(c1ccncc1)c1ccc([N+](=O)[O-])cc1
T/C [7]: 94 % of control | T/C [8]: 92 % of control | T/C [9]: 88 % of control

Cc1cc(=O)[nH]c2cc(NN)ccc12
T/C [7]: 96 % of control | T/C [8]: 92 % of control | T/C [9]: 95 % of control

c1ccc2[nH]ncc2c1
T/C [1]: 96 % of control | T/C [2]: 102 % of control | T/C [3]: 100 % of control
